We go through one compound from patent US7601494B2, “Method of screening candidate compounds for susceptibility to biliary excretion” (The University of North Carolina at Chapel Hill, priority 1999, dated 2009).

The test system of data set [1] is hepatic cytochrome p450 isozymes. Particulars: Silver et al. 1996; cited from earlier work.
Data set [2] can be described thus: Biliary excretion in bile duct cannulated rats after administration of [14C]264W94 / [14C]2169W94. The data set is classed as in vivo, rat. Here is the method: Male Wistar rats (250-280 g) from Charles River Laboratory (Raleigh, N.C.) were used as liver donors. Rats were housed individually in stainless-steel cages in a constant alternating 12-hr light and dark cycle at least 1 week before the study was performed, and were fed ad libitum until use. Bile duct cannulated rats (200-250 g) were obtained from Charles River (Raleigh, N.C.). The Institutional Animal Care and Use Committee at the University of North Carolina at Chapel Hill, Chapel Hill, N.C., approved all procedures.
[^14C]264W94 was formulated as a solution in a mixture of sterile water/polypropylene glycol 400/ethanol (2:1:1 v/v/v) at a concentration of 0.125 mg/mL. Following collection of pre-dose bile, [^14C]264W94 solution was administrated by caudal vein injection (0.1 mg/kg). For the 2169W94 studies, [^14C]2169W94 was prepared as a suspension at a concentration of 0.1 mg/mL in 0.5% (w/v) methylcellulose in water. Following collection of pre-dose bile, [^14C]2169W94 suspension was administrated by gavage (1.0 mg/kg). All rats were placed into individual plastic metabolism cages that allowed the rats unrestrained movement. Bile was collected into polypropylene containers surrounded by ice. For the 264W94 studies, the bile container was changed at 8 and 24 hours after the dose. […] Bile samples were stored at −20° C. until analysis.
Aliquots of cell lysate or bile samples containing 264W94 or 2169W94 were mixed with 2-fold volumes of ice-chilled acetonitrile, and centrifuged to remove precipitated proteins. The supernatant was evaporated under nitrogen at room temperature, and reconstituted in 100 μL of a 70/30 mixture of 50 mM ammonium acetate/acetonitrile/trifluoroacetic acid (95:5:0.1 v:v:v) and acetonitrile. […]
Radiocarbon that eluted from the HPLC was quantified with an on-line radioactivity detector (RADIOMATIC FLO-ONE/BETA™ Radio-Chromatography Detector Series 500 TR Series, Packard Instrument Co.). […] The concentration of the three components was determined by normalizing the eluted radioactivity in each peak to the total injected radioactivity.

Data set [3] has as its system short-term cultured hepatocytes. The data set is described as follows: Cumulative uptake in 3-hr (short-term) cultured hepatocyte monolayers, standard vs Ca2+-free buffer. The data set is classed as in vitro ADME, rat. Particulars: 3-hr cultured hepatocytes. Here is the method: Hepatocytes were isolated with a two-step perfusion method. Briefly, rats were anesthetized with ketamine and xylazine (60 and 12mg/kg i.p., respectively) prior to portal vein cannulation. The liver was perfused in situ with oxygenated Ca^2+-free Krebs-Henseleit bicarbonate buffer containing collagenase type 1 (0.5 mg/ml) for 10 min. The hepatic capsule was removed with forceps. The hepatocytes were released by shaking the liver gently in 100 ml DMEM.
The released cells were filtered through a sterile nylon mesh (70-μm). The hepatocyte suspensions were centrifuged at 50 xg for 3 min. The cell pellet was resuspended in 25 ml DMEM and an equal volume of 90% isotonic polyvinylpyrrolidone-coated silica colloid centrifugation medium (pH 7.4) sold under the registered trademark PERCOLL® by Pharmacia, Inc. of Piscataway, N.J. The resulting cell suspension was centrifuged at about 70 to about 150 xg for 5 min. The pellet was resuspended in 50 ml DMEM and the cell suspensions were combined into one tube followed by centrifugation at 50 xg for 3 min. Hepatocyte viability was determined by trypan blue exclusion. Only those hepatocyte preparations with viability greater than 90% were utilized for further studies.
Hepatocyte suspensions were prepared with DMEM containing 5% fetal calf serum, 1 μM dexamethasone and 4 mg/L insulin. Hepatocyte suspensions were added to the precoated dishes at a density of about 2-3×10^6 cells/60-mm dish. Approximately 1 hr after plating the cells, the medium was aspirated and 3-ml fresh DMEM was added. For transport studies, hepatocytes that had been seeded for 3-5 hr without collagen overlay were defined as 3-hr or short-term cultured hepatocytes.
(§1) Hepatocytes cultured in a collagen-sandwich configuration were incubated in 3 ml standard buffer or Ca^2+-free buffer at 37° C. for 10 min. After removing the incubation buffer, uptake was initiated by addition of 3 ml standard buffer containing substrate to each dish. After incubation for designated times, cumulative uptake was terminated by aspirating the incubation solution and rinsing 4 times with 3 ml ice-cold standard buffer to remove extracellular substrate. After washing, 2 ml of 1% Triton X-100 solution was added to culture dishes, and the cells were lysed by shaking the dish on a shaker for 20 min at room temperature. An aliquot (1 ml) of lysate was analyzed by liquid scintillation spectrometry. Bio-Rad DC Protein Assay Kit (Bio-Rad Laboratories, Hercules, Calif.) was used to determine the protein concentration in the culture extracts using bovine serum albumin as standard. […] All values for substrate uptake into cell monolayers were corrected for nonspecific binding to the collagen by subtracting the substrate uptake determined in the appropriate control dishes in the absence of cells as described previously.
(§2) Uptake data were normalized to the protein content and expressed as mean±SD from 3-4 separate preparations of hepatocytes. Statistical differences between mean values for the 10-min cumulative substrate uptake in the presence and absence of Ca^2+ were determined by the use of the well-known Student's t-test. A P value of <0.05 was considered significant.

The test system of data set [4] is sandwich-cultured hepatocytes. The data set is described as follows: HPLC analysis of 10-min cell lysate of 96-hr sandwich-cultured hepatocytes. The data set is classed as in vitro ADME, rat. Particulars: 96-hr hepatocytes incubated with 3 μM [14C]264W94, 10 min. Here is the method: Aliquots of cell lysate or bile samples containing 264W94 or 2169W94 were mixed with 2-fold volumes of ice-chilled acetonitrile, and centrifuged to remove precipitated proteins. The supernatant was evaporated under nitrogen at room temperature, and reconstituted in 100 μL of a 70/30 mixture of 50 mM ammonium acetate/acetonitrile/trifluoroacetic acid (95:5:0.1 v:v:v) and acetonitrile. The sample extracts were injected onto a WATERS™ […]™ C18 column (3.9×150 mm) and eluted by a 85/15 mixture of 50 mM ammonium acetate (pH 4.0) and acetonitrile; the percentage of acetonitrile was increased by a WATERS™ 600E System Controller to 55% over a period of 20 minutes, and then to 100% during the next 10 minutes.
Radiocarbon that eluted from the HPLC was quantified with an on-line radioactivity detector (RADIOMATIC FLO-ONE/BETA™ Radio-Chromatography Detector Series 500 TR Series, Packard Instrument Co.). The peaks of 264W94, 2169W94, and 2169W94 glucuronide were identified by comparing with purified standard compound. Under these conditions, baseline separation of these three components was achieved. The concentration of the three components was determined by normalizing the eluted radioactivity in each peak to the total injected radioactivity. […]

The test system of data set [5] is sandwich-cultured hepatocytes. Kind of data set: Cumulative uptake, Biliary Excretion Index and in vitro biliary clearance in 96-hr sandwich-cultured hepatocytes. The class given is in vitro ADME, rat. Here is the method: To prepare sandwich-cultured hepatocytes, neutralized collagen solution (0.1 ml, about 1.5 to about 3.0 mg/ml, pH 7.4) was added to the monolayers 24 hr after the cells were seeded. […] Medium was changed on a daily basis until the fourth day after the cells were seeded. These hepatocytes were referred to as 96-hr or long-term cultured hepatocytes.
as §1, §2
Biliary excretion of substrates in the monolayers was quantitatively assessed by the Biliary Excretion Index based on Equation 3:
[formula] where Uptakestandard and Uptake Ca^2+-free represent the cumulative uptake of substrate over a 10-min interval in the hepatocyte monolayers pre-incubated in standard buffer and in Ca^2+-free buffer, respectively.
Biliary clearance in the sandwich-cultured hepatocytes, ClB(culture) (ml/min/kg per body weight), was calculated according to Equation 4:
[formula] where Timeincubation was 10 min and Concentrationmedium represented the initial substrate concentration in the incubation medium. In some embodiments, a biliary clearance value can be calculated as the ratio of the mass in the bile canaliculi and the area under the curve (AUC) in culture medium, wherein the AUC represents the integral of candidate compound (e.g. xenobiotic concentration) in the medium from time 0 to time T (time can be measure in any desired units, and is usually measured in minutes). Indeed, the term AUC can refer to the following equation: […]

With `CCCC[C@]1(CC)CS(=O)(=O)c2cc(OC)c(OC)cc2[C@@H](c2ccccc2)N1` [264W94, (3R, 5R)-3-butyl-3-ethyl-2,3,4,5-tetrahydro-7,8-dimethoxy-5-phenyl-1,4-benzothiazepine-1,1-dioxide], the “cytochrome p450 isozyme primarily involved in the metabolism” value in data set [1] is reported as “CYP3A4”. The “biliary excretion in rats (in words)” value in data set [2] (in vivo) was “negligible biliary excretion”. For the same compound, the “detection in bile in 24 hr” value in data set [2] (rats, i.v. [14C]264W94 0.24 μmol/kg) is given as “neither 264W94 nor 2169W94 was detected”. In addition, the “total administered radioactivity recovered in bile” value in data set [2] (rats, oral administration 2.4 μmol/kg, in 8 hr, n=2) turned out to be 66.4%. In addition, the “cumulative uptake in standard buffer compared to Ca2+-free buffer” value was “similar” in data set [3] and “not significantly different” in data set [5] (96-hr cultured hepatocytes). Also, in data set [4], the “share of total radioactivity in cell lysate” value came out at 73.0%. Besides, the “biliary excretion in long-term sandwich-cultured hepatocytes (in words)” value in data set [5] (96-hr sandwich-cultured hepatocytes) is listed as “lack of biliary excretion”.
